Assay results published in article PMC3271139 (Nature, 2012).

How the values were obtained:
[1] = biological target: T1, truncated, His-tagged human CYP17A1 (Homo sapiens, UniProt P05093, C22K/P23T/R20A/R21K); assay: UV/vis spectral shift ligand binding assay
T1 sequence (P05093 with tags, fused parts or gaps limits assumed): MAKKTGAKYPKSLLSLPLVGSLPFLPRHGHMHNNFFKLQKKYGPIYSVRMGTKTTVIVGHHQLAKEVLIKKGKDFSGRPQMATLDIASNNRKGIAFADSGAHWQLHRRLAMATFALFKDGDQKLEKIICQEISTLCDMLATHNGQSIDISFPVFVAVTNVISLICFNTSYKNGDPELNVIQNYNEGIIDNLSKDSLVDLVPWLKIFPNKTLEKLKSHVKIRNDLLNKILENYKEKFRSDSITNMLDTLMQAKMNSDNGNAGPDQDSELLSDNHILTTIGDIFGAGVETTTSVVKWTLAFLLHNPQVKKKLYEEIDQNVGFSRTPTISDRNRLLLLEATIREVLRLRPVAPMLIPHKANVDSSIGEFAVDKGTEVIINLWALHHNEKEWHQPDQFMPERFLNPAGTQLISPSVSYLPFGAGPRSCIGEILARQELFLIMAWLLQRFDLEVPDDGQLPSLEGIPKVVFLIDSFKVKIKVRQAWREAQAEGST

[2] = biological target: T2, truncated human CYP17A1 (Homo sapiens, UniProt P05093, C22K/P23T/R20A/R21K); assay: Progesterone 17α-hydroxylation, HPLC separation with UV detection; type: biochemical
T2 sequence (P05093 with tags, fused parts or gaps limits assumed): T1 sequence (P05093 with tags, fused parts or gaps limits assumed)

Kd [1] [nM]	IC50 [2] [nM]	Structure (SMILES)
< 100	201 ± 1	C[C@]12CC[C@H](O)CC1=CC[C@@H]1[C@@H]2CC[C@]2(C)C(c3cccnc3)=CC[C@@H]12 [abiraterone, 17-(3-pyridyl)androsta-5,16-dien-3β-ol]
229 ± 14	–	CC(=O)[C@H]1CC[C@H]2[C@@H]3CCC4=CC(=O)CC[C@]4(C)[C@H]3CC[C@]12C [progesterone]
< 100	503 ± 1	C[C@]12CC[C@H](O)CC1=CC[C@@H]1[C@@H]2CC[C@]2(C)C(n3cnc4ccccc43)=CC[C@@H]12 [TOK-001, 3β-hydroxy-17-(1H-benzimidazole-1-yl)androsta-5,16-diene]
